Data as given in PubChem BioAssay (NCI).
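GI50 is the concentration that inhibits growth by half. TGI is the concentration that stops growth completely.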

Experiments:
Assay in all cases: growth of human tumour cells (NCI), 384-well format
EKVX NSCLC = tested on: EKVX NSCLC
SR leukemia = tested on: SR leukemia
SF-295 CNS = tested on: SF-295 CNS
UO-31 renal = tested on: UO-31 renal
MCF7 breast = tested on: MCF7 breast
COLO 205 colon = tested on: COLO 205 colon
NCI-H322M lung = tested on: NCI-H322M lung
CCRF-CEM leukemia = tested on: CCRF-CEM leukemia
HS 578T breast = tested on: HS 578T breast
MOLT-4 leukemia = tested on: MOLT-4 leukemia
OVCAR-4 ovarian = tested on: OVCAR-4 ovarian
IGROV1 ovarian = tested on: IGROV1 ovarian
OVCAR-3 ovarian = tested on: OVCAR-3 ovarian
NCI-H23 lung = tested on: NCI-H23 lung
HT29 colon = tested on: HT29 colon
MALME-3M melanoma = tested on: MALME-3M melanoma
MDA-MB-231 breast = tested on: MDA-MB-231 breast
786-0 renal = tested on: 786-0 renal
SNB-75 CNS = tested on: SNB-75 CNS
TK-10 renal = tested on: TK-10 renal
SW-620 colon = tested on: SW-620 colon
NCI/ADR-RES ovarian = tested on: NCI/ADR-RES ovarian
NCI-H460 NSCLC = tested on: NCI-H460 NSCLC
SF-268 CNS = tested on: SF-268 CNS
PC-3 prostate = tested on: PC-3 prostate
HOP-92 NSCLC = tested on: HOP-92 NSCLC
UACC-62 melanoma = tested on: UACC-62 melanoma
T-47D breast = tested on: T-47D breast
SK-MEL-2 melanoma = tested on: SK-MEL-2 melanoma
BT-549 breast = tested on: BT-549 breast

COc1nccc(-c2c(-c3ccc(F)cc3)ncn2C2CCC(O)CC2)n1 (centres undefined)
TGI (EKVX NSCLC): > 100 µM | GI50 (SR leukemia): 31.6 µM | TGI (SR leukemia): > 100 µM | GI50 (SF-295 CNS): > 100 µM | TGI (SF-295 CNS): > 100 µM | GI50 (UO-31 renal): 31.4 µM | TGI (UO-31 renal): > 100 µM | GI50 (MCF7 breast): 36.2 µM | TGI (MCF7 breast): > 100 µM | GI50 (COLO 205 colon): > 100 µM | TGI (COLO 205 colon): > 100 µM | GI50 (NCI-H322M lung): > 100 µM | TGI (NCI-H322M lung): > 100 µM | GI50 (CCRF-CEM leukemia): 50 µM | TGI (CCRF-CEM leukemia): > 100 µM | GI50 (HS 578T breast): > 100 µM | TGI (HS 578T breast): > 100 µM | GI50 (MOLT-4 leukemia): 29.5 µM | TGI (MOLT-4 leukemia): > 100 µM | GI50 (OVCAR-4 ovarian): > 100 µM | TGI (OVCAR-4 ovarian): > 100 µM | GI50 (IGROV1 ovarian): 38.5 µM | TGI (IGROV1 ovarian): > 100 µM | GI50 (OVCAR-3 ovarian): > 100 µM | TGI (OVCAR-3 ovarian): > 100 µM | GI50 (NCI-H23 lung): > 100 µM | TGI (NCI-H23 lung): > 100 µM | GI50 (HT29 colon): 46 µM | TGI (HT29 colon): > 100 µM | GI50 (MALME-3M melanoma): > 100 µM | TGI (MALME-3M melanoma): > 100 µM | GI50 (MDA-MB-231 breast): > 100 µM | TGI (MDA-MB-231 breast): > 100 µM | GI50 (786-0 renal): 69.8 µM | TGI (786-0 renal): > 100 µM | GI50 (SNB-75 CNS): > 100 µM | TGI (SNB-75 CNS): > 100 µM | GI50 (TK-10 renal): 37.4 µM | TGI (TK-10 renal): > 100 µM | GI50 (SW-620 colon): > 100 µM | TGI (SW-620 colon): > 100 µM | GI50 (NCI/ADR-RES ovarian): > 100 µM | TGI (NCI/ADR-RES ovarian): > 100 µM | GI50 (NCI-H460 NSCLC): 71.6 µM | TGI (NCI-H460 NSCLC): > 100 µM | GI50 (SF-268 CNS): > 100 µM | TGI (SF-268 CNS): > 100 µM | GI50 (PC-3 prostate): > 100 µM | TGI (PC-3 prostate): > 100 µM | GI50 (HOP-92 NSCLC): > 100 µM | TGI (HOP-92 NSCLC): > 100 µM | GI50 (UACC-62 melanoma): > 100 µM | TGI (UACC-62 melanoma): > 100 µM | GI50 (T-47D breast): > 100 µM | TGI (T-47D breast): > 100 µM | GI50 (SK-MEL-2 melanoma): > 100 µM | TGI (SK-MEL-2 melanoma): > 100 µM | GI50 (BT-549 breast): > 100 µM | TGI (BT-549 breast): > 100 µM
